{"source": "the NIST ThermoML archive (doi:10.1021/acs.jced.8b01205)", "key": {"[1]": {"settings": "Crystal; DSC"}, "[2]": {"assay": "Molar enthalpy of transition or fusion", "settings": "Crystal; DSC"}}, "note": "Numbers after ± are expanded uncertainties."}
{"smiles": "N#CCC(N)=O", "note": "[2-cyanoethanamide]", "values": [{"measurement": "Triple point temperature", "setting": "[1]", "result": "392.84 ± 1.2", "unit": "K"}, {"measurement": "Molar enthalpy of transition or fusion", "setting": "[2]", "result": "5.41 ± 0.43", "unit": "kcal/mol"}]}
